Here are results for 18 molecules from ChEMBL document CHEMBL1201862, “PubChem BioAssay data set” (2004).

As usually defined, the IC50 is the midpoint of a concentration-inhibition curve. A word on the AC50: it is the midpoint of the concentration-response curve, whichever way the signal moves. By EC50 is commonly meant the concentration that produces a half-maximal response.

For assay [1], the target named is Photoreceptor-specific nuclear receptor (Homo sapiens, UniProt Q9Y5X4). It is filed as functional, cell-based.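 Further: CHO-S cells with Gal4-NCOR and VP16-NR2E3 two-hybrid luciferase reporter.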
In assay [2] the target is Glucose-6-phosphate 1-dehydrogenase (Homo sapiens, UniProt P11413). Kind of assay: inhibition of Homo sapiens G6PD, dose series – biochemical, fluorescence, selectivity assay for P. falciparum G6PD inhibitor project, dose response (AID 504792). It is filed as functional.
The target of assay [3] is Dual specificity tyrosine-phosphorylation-regulated kinase 1A (Rattus norvegicus, UniProt Q63470). It is filed as biochemical, Homo sapiens.
Assay [4] deals with HEK293. Kind of assay: inhibition of NOD1-driven NF-kB reporter – cell-based, luminescence, uHTS, primary screen (AID 1578). The format is functional. Particulars: Homo sapiens.
Assay [5] deals with HEK293. Briefly: cells. The format is functional, cell-based. The settings on record: Homo sapiens.
For assay [6], the system named is HEK293. Kind of assay: NOD2 signaling inhibitors in MDP-stimulated cells, cell-based, uHTS, luminescence (AID 2001). It is filed as functional. Particulars: Homo sapiens.
For assay [7], the system named is HEK293. Briefly: cells. The format is functional, cell-based. The settings on record: Homo sapiens. This is another data set of the same source.
In assay [8] the target is Peroxisome proliferator-activated receptor gamma/Nuclear receptor coactivator 1 (Homo sapiens, UniProt P37231). Kind of assay: TR-FRET dose response biochemical High Throughput Screening assay for agonists of the steroid receptor coactivator 1 (SRC-1) recruitment by the peroxisome proliferator-activated receptor gamma (PPAR gamma): non-selective agonists. [Related pubchem assays (depositor defined):AID1300, AID1808, AID504735, AID631]. It is filed as protein assay.

Assay [9] addresses T1, SUMO-activating enzyme (Homo sapiens, UniProt Q9UBT2). Briefly: blockers of SAE1/SAE2–UBC9 SUMO transfer – biochemical, HTRF, uHTS, primary screen (AID 2006). It is filed as protein-complex assay. Background: Time-resolved FRET reads energy transfer from a long-lived donor to a nearby acceptor.
The target in assay [10] is T2, Fatty acid synthase (Homo sapiens, UniProt P49327). Briefly: inhibition of human FAS-TE enzyme activity – biochemical, kinetic fluorescence intensity, dose response (AID 624326).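 Further: rate of fluorescence rise from hydrolysis of a fluorogenic O-methyl fluorescein ester substrate.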 It is filed as functional.
Assay [11] addresses Peroxisome proliferator-activated receptor gamma/Nuclear receptor coactivator 2 (Homo sapiens, UniProt P37231). Briefly: TR-FRET dose response biochemical High Throughput Screening assay for agonists of the steroid receptor coactivator 2 (SRC-2) recruitment by the peroxisome proliferator-activated receptor gamma (PPAR gamma): non-selective agonists. [Related pubchem assays: 1297, 1032 ]. It is filed as functional.

Assay [12] addresses T2, Fatty acid synthase. Briefly: inhibition of human FAS-TE enzyme activity – biochemical, endpoint fluorescence intensity, uHTS hits, dose response (AID 624327).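 Further: fluorescence from hydrolysis of an O-methyl fluorescein acyl ester substrate by the enzyme.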 It is filed as functional.
Assay [13] addresses Major prion protein (Homo sapiens, UniProt P04156). It is filed as functional, cell-based.
The target of assay [14] is T1, SUMO-activating enzyme. Kind of assay: blockers of UBC9-mediated SUMO conjugation – biochemical, AlphaScreen, SUMOylation inhibitor project, confirmation (AID 2018). It is filed as functional. (Alpha assays give light when donor and acceptor beads are brought close together.)
In assay [15] the target is Peroxisome proliferator-activated receptor gamma/Nuclear receptor coactivator 3 (Homo sapiens, UniProt P37231). Kind of assay: TR-FRET dose response biochemical High Throughput Screening assay for agonists of the steroid receptor coactivator 3 (SRC-3) recruitment by the peroxisome proliferator-activated receptor gamma (PPAR gamma): non-selective agonists. [Related pubchem assays: 1301 (Confirmation screen.), 1048 (Primary screen.)]. The format is functional.

For assay [16], the target named is T3, Short transient receptor potential channel 4 (Mus musculus, UniProt Q9QUQ5).
T3 sequence (Q9QUQ5 whole entry): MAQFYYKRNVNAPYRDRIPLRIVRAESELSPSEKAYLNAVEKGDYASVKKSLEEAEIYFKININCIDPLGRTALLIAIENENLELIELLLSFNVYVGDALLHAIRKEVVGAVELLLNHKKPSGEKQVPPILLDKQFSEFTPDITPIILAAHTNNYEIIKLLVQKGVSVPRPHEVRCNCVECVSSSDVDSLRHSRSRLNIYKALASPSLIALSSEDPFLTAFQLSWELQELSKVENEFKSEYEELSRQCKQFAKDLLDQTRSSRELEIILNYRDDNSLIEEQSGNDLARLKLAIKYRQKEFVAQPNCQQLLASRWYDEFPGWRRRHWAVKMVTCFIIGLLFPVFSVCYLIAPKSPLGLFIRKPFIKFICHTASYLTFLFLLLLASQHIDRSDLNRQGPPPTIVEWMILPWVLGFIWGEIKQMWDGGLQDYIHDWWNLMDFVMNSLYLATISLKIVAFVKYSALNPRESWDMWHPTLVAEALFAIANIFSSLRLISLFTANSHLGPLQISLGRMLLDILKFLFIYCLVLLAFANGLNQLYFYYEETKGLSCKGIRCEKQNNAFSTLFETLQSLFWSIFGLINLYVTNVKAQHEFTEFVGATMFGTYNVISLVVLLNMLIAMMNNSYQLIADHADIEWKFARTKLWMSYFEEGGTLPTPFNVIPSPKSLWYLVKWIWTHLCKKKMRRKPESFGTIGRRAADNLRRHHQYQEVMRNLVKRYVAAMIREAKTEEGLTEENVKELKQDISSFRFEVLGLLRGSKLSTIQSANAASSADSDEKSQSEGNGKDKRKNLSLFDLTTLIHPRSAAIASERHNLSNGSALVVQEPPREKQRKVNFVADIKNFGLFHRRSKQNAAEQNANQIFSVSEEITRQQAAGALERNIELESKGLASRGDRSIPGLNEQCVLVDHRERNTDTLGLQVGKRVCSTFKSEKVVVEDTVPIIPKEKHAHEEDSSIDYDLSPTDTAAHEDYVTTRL
Briefly: block of DAMGO-driven TRPC4 calcium entry – cell-based, HEK293 TRPC4/mu-opioid, Fluo-4 calcium, dose response (AID 434942).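 Further: potency of inhibitors blocking the TRPC4 calcium response.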 The format is functional.

Assay [17] deals with T4, Adenosylmethionine-8-amino-7-oxononanoate aminotransferase (Mycobacterium tuberculosis, UniProt P9WQ81).
T4 sequence (P9WQ81 whole entry): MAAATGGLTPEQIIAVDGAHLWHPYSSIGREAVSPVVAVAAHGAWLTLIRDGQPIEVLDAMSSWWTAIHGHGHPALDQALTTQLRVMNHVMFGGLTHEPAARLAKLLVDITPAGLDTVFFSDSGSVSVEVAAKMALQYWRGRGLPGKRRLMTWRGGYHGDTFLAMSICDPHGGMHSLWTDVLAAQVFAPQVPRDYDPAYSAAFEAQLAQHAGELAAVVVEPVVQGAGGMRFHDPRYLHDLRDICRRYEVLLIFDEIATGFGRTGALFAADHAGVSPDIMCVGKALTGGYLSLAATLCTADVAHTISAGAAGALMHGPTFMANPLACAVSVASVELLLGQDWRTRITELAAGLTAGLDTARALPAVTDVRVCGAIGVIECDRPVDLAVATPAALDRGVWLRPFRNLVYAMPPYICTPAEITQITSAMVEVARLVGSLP
Briefly: Mycobacterium tuberculosis BioA enzyme inhibitor Measured in Biochemical System Using Plate Reader - 2163-02_Inhibitor_Dose_CherryPick_Activity. The format is functional, Mycobacterium tuberculosis UT205.

Assay [18] concerns the target T5, Alkaline phosphatase, tissue-nonspecific isozyme (Homo sapiens, UniProt P05186).
T5 sequence (P05186 whole entry): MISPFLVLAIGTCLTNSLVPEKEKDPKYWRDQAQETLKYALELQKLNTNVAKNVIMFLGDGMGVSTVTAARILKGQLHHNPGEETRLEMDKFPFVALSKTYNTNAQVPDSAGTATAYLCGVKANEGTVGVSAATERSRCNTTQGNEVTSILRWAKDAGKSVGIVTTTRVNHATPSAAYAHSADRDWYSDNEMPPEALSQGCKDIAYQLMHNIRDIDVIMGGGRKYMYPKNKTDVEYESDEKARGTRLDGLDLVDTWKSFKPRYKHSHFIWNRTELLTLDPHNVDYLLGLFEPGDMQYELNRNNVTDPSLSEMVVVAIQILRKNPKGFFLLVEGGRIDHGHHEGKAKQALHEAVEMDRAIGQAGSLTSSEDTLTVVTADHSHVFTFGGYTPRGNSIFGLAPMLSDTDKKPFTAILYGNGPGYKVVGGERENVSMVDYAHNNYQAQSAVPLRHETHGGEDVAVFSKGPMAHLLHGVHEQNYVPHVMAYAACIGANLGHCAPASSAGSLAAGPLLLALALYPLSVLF
Kind of assay: potency against alkaline phosphatase TNAP – biochemical, luminescent, dose response, SAR follow-up (AID 1056).

Assay [19] concerns the target Glyceraldehyde-3-phosphate dehydrogenase (Homo sapiens, UniProt P04406).
For assay [20], the target named is T6, Coagulation factor XII (Homo sapiens, UniProt P00748).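 Further: activated factor XIIa alpha cleaving a fluorogenic AMC peptide substrate; inhibitor potency from loss of enzyme activity.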
T6 sequence (P00748 whole entry): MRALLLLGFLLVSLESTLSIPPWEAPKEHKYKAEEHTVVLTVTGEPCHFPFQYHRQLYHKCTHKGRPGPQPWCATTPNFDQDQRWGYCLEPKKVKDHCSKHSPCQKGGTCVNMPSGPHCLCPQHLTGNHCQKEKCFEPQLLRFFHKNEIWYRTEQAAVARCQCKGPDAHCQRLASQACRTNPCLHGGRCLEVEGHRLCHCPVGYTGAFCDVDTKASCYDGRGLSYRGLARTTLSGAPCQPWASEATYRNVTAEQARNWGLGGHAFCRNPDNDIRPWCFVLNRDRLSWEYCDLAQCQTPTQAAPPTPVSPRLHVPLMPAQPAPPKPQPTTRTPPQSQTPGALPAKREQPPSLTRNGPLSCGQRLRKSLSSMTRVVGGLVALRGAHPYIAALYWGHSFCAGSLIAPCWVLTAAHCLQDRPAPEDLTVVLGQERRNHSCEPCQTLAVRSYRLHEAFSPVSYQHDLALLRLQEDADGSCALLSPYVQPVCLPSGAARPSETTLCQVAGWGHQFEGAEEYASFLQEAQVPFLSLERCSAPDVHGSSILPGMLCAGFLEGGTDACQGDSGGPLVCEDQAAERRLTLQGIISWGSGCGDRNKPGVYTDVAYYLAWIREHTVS
The format is functional.

The nature of assay [21]: cells.

Molecules are shown by their SMILES. Active and inactive are the calls of the source.

With `COc1ccc(S(=O)(=O)N2CCCCC2)cc1N=C(S)Nc1cccc(Cl)c1C`, the half-inhibitory concentration (IC50) in assay [1] was 0.962 µM (active).
For `CCN(CC)CCn1c2ccccc2c(=O)c2c(O)ccc(O)c21`, the IC50 in assay [2] is 64.6 µM (inactive). Besides, the AC50 in assay [3] is 3.16 µM (active).
For `CCC(NC(=O)c1ccc2nc(Cc3ccc(OC)cc3)oc2c1)c1ccncc1` (configuration not stated), the concentration giving a half-maximal response (EC50) in assay [4] is 4.58 µM (active). In addition, the results for the IC50 in [5], in assay [6] and in [7] were 16.5 µM (active), 12.5 µM (inactive) and 8.15 µM (active), respectively.
Turning to `N#Cc1c(-c2cccs2)nc(SCc2ccc(Cl)cc2)[nH]c1=O`, the EC50 in assay [8] was > 79.4 µM (inactive); in assay [11], > 79.4 µM (not active); in [15], > 79.4 µM (not active); in assay [16] it was 4.22 µM (active). In addition, the IC50 in assay [9] is 18 µM (active); in [10], 5.61 µM (active); in assay [12], 6.44 µM (active); in assay [13] it was 1.05 µM (active); in [14], 9.93 µM (active).
With `CCN1[C@H](C(=O)NCc2ccccc2)[C@@H](CO)[C@@H]2Cn3c(ccc(-c4cccnc4)c3=O)[C@@H]21`, in assay [17], the concentration at half-maximal activity (AC50) was 13.2 µM (active).
As to `O=S(=O)(Nc1ccc2ccccc2c1)c1cc(Cl)ccc1F`, the results for the IC50 in assay [18] and in assay [19] were > 10 µM (inactive) and > 10 µM (inconclusive), respectively.
Take `CN(c1ccccc1)S(=O)(=O)c1ccc(NC(=S)NC(=O)c2ccccc2)cc1`: the IC50 in [20] was > 50 µM (inactive).
Turning to `O=C1N=C(NS(=O)(=O)Cc2ccccc2)S/C1=C/c1ccc2c(c1)OCO2`, in assay [3], the AC50 is 2.56 µM (active).
Regarding `N#Cc1c(O)nc(SCc2ccc(Cl)cc2)nc1-c1cccs1`, the EC50 in [4] is 4.58 µM (active). In addition, the IC50 in [5] is 18.9 µM (active); in [6], 6.99 µM (inactive); in assay [21] it was > 138 µM (inactive); in [7], 11.5 µM (active).
On to `O=C(C[C@H]1C[C@@H]2c3cc(NC(=O)c4cccnc4)ccc3O[C@@H]2[C@@H](CO)O1)NCC(F)(F)F`, for which the half-maximal activity concentration (AC50) in assay [17] was 16.8 µM (active).
The same measure, in the same setting: with `O=C(c1ccccc1F)N1CC[C@@H]2[C@H]1c1cc(Br)ccc1N[C@@H]2CO` the figure was 1.53 µM (active).
For the molecule `Cc1cccc(NC(=O)CSCc2c(C)noc2C)c1C`, in assay [20], the IC50 was > 50 µM (inactive).
Turning to `COc1ccc(OC)c(CNc2cnc3ccccc3c2)c1`, the results for the IC50 in [18] and in [19] were > 100 µM (inactive) and > 100 µM (not active), respectively.
The like results for `CC(C)CNC(=O)c1cc(-c2cc(F)c(Cl)cc2Cl)n[nH]1` were, in that order, 0.27 µM (active) and > 10 µM (inconclusive).
For the molecule `CCC1(OC(=O)CN(C)C)C(=O)OCc2c1cc1n(c2=O)Cc2cc3c(N)cccc3nc2-1` (configuration not stated), the IC50 in [1] is 2.92 µM (active).
For `CC(C)C(NC(=O)CC12CC3CC(CC(C3)C1)C2)C(=O)O` (configuration not stated), the IC50 in assay [20] is > 50 µM (inactive).
Still for that read-out and setting: with `O=C(NNc1c(Cl)cc(Cl)cc1Cl)c1nnc(O)c2ccccc12` the figure was > 50 µM (inactive).
For the molecule `CC(=O)Oc1ccc2c(c1)C(=O)c1ccccc1C2=O`, the half-maximal activity concentration (AC50) in [3] was 36.2 µM (active).
